The text below walks through data of a melting point compilation (Tetko et al.; mined from patent text by program, amines drawn as free bases though some values may be those of a salt).

The structures appear in SMILES notation. Where only a bound is given, the exact number is not on record here.

As to `CCCCOC(=O)c1c(C)nc2cc(OC)c(OC)cc2c1-c1ccc(OC)c(OC)c1`, the melting point – broadly, the temperature, or range, at which the solid turns liquid – was 119 to 120 °C.
With `C[C@]12C[C@H](c3ccc(O)cc3)C3=C4CCC(=O)C=C4CC[C@H]3[C@@H]1CCC2=O` the figure was 220 °C; with `CCNC(=O)Nc1cc(-c2c(-c3ccc(F)c(C)c3)nc3ccc(NC)nn23)ccn1`, 263 to 264 °C.
With `Cc1ccc(-c2cc(S(=O)(=O)c3ccc(N)cc3)cc(N3CCCC3)n2)cc1` the figure was 250 to 251 °C; with `CCOC(=O)COc1ccc(C(=O)Nc2ccccc2Sc2cccc(O)c2-c2nnn[nH]2)cc1`, 155 to 157 °C; with `CCCCCCCCOc1cc(-c2cccc(C(F)(F)F)c2)c(OCC(=O)O)c(-c2cccc(C(F)(F)F)c2)c1`, 75 to 77 °C.
Next, `COc1ccc2nc(-c3c[nH]c4ccccc34)[nH]c(=O)c2c1`: 311 to 312 °C.
In turn, `Cc1c(C2CCC(c3ccccc3)(N(C)C)CC2)[nH]c2ccc(OC(F)(F)F)cc12` (centres undefined) had a melting point of 219 to 221 °C.
For `Cc1cc(NC(=O)NCc2ccc3c(c2)CN(C2CCC(=O)NC2=O)C3=O)ccc1O` (centres undefined), the melting point was in the range of 210 to 212 °C.
Next, `CC(C)Oc1ccc(-c2ccc3nnn(Cc4ccc5ncccc5c4)c3n2)cc1F`: 128 to 130 °C.
Next, `CC(C)(C(=O)O)C(=O)NCc1cn(C(c2ccccc2)(c2ccccc2)c2ccccc2)cn1`: 174 to 175 °C; `N#CN1c2ccccc2CC(Cl)c2ccccc21` (centres undefined): 139 to 140 °C.
With `CCC1=C(C#N)C(c2cccc(C#N)c2Br)c2c[nH]nc2N1` (centres undefined) the figure was over 300 °C; with `O=C(Nc1cc2c(cn1)[nH]c1ccccc12)c1cccs1`, 109 to 125 °C; with `O=c1[nH]c2ccc(C3CCC(NCCS(=O)c4ccccc4)CC3)cc2o1` (centres undefined), 107 to 110 °C.
For `CC(=O)O[C@H]1CCNC1=O`, the melting point lay within 85.5 to 87 °C.
Consider `NC(=O)C1CCN(CC=Cc2ccccc2)CC1`, for which the melting point lay in the range of 190 to 192 °C.
For `Fc1ccc(F)c(C(Sc2ccc(Cl)cc2)c2ccc(C3OCCO3)cn2)c1` (centres undefined), the melting point was 70 to 73 °C.
Next, `COc1ccccc1-n1c(=O)[nH]c2c(C(N)=O)nc(-c3ccc4nc(C(F)(F)F)[nH]c4c3)nc21`: 220 to 222 °C; `N#CN=C1SCCN1Cc1c(Cl)ccc(C(=O)O)c1Cl`: 208 °C; `CCc1cccc(C)c1CNc1nc(OCCOC)cc2c1nc(C)n2C`: 105 °C.
Next, `CC(Oc1ncn(-c2ccc(Br)cc2)n1)C(=O)N1CCCC1` (centres undefined): 144 to 145 °C.
With `CC(NC(=NC#N)Nc1cccnc1)c1ccccc1` (centres undefined) the figure was 185 to 187 °C.
Take `CC1=Nc2ccc(C)cc2C(O)(c2ccccc2)N1N` (centres undefined): the melting point is 192 to 196 °C.
Turning to `CCOc1ccc(C2=NNC(=O)CC2)c(OCC)c1`, the melting point is 148 to 150 °C.
Consider `CNc1nnc(-c2ccccc2)c(=O)n1NC`, for which the melting point is 150 to 151 °C.
Next, `COC(=O)c1ccc(Cc2cn(C)c3ccc(C=C(C)C(=O)O)cc23)c(OC)c1`: 182 to 183 °C; `O=C(NC(=O)c1ccccc1Cl)Nc1ccc(F)c(C(F)(F)F)c1Cl`: 208 °C.
With `FC(F)(F)c1ccc(C2=CCC(N3CCN(Cc4ccccc4)CC3)CC2)cc1` (centres undefined) the figure was 115 to 116 °C; with `CS(=O)(=O)c1ccc(-c2ccc(S(=O)(=O)CC(CO)N(O)C=O)cc2)cc1` (centres undefined), 165 to 167 °C.
Next, `Cc1ncccc1CC(=NC#N)NC(NC(=O)Cc1ccc(Cl)cc1)C(C)(C)C` (centres undefined): 118 to 119 °C; `NC(=O)N1CCN(CC(O)COc2ccc(O)cc2)CC1` (centres undefined): 198 to 201 °C; `O=S(=O)(c1ccc(Oc2ccc(Cl)c(Cl)c2)cc1)C(F)(F)F`: 77 to 78 °C.
Molecule `CCOC(=O)c1cnn(C)c1O` returned a melting point of 134 to 135 °C.
In turn, `CCCCNC(=O)Oc1cccc(NC(=O)CC(C)(OC)OC)c1` returned a melting point of 114 °C.
With `O=Cc1ccc(OCc2ccccc2)cn1` the figure was 68 to 70 °C.
Next, `CCOC(=O)CCc1nnc(CNC(=O)c2ccc(Cl)c(Cl)c2)n1-c1sc(CC)cc1C(=O)c1ccccc1Cl`: 153 to 155 °C.
With `COc1ccc(CCNC(=O)C(=O)NCCCCCCN)cc1OC1CCCC1` the figure was 105 to 110 °C; with `CCn1c(=O)c2cc(C(=O)O)cn2c2cc(Cl)ccc21`, 322 to 326 °C.
Turning to `O=C(O)Cc1nn(-c2nc3ccccc3s2)c(=O)c2ccccc12`, the melting point worked out at 205 °C.
`CC(C)CCC(=O)NC1(C(=O)NC2N=C(C(C)(C)C)c3ccccc3N(C)C2=O)CCCC1` (centres undefined): the melting point was 175 to 178 °C.
With `CCOC(=O)c1sc2nc(SCCCN3CCN(c4ccc5ccccc5n4)CC3)[nH]c(=O)c2c1C` the figure was 200 to 201 °C; with `Oc1ccc2nc(-c3ccc(O)c(O)c3)oc2c1`, 282 to 284 °C; with `Cc1c(C(=O)Nc2ccc(N3CCC(N4CCOCC4)CC3)c(C#N)c2)cnn1-c1ccc(Cl)c(Cl)c1`, 242 °C.
Molecule `Nc1cc(C(=O)CCCCCl)cc2c1OCC2` showed a melting point of 129 to 131 °C.
With `CN(C)C(CN1CCN(c2ccc(F)cc2)CC1)CN1c2cccc3cccc(c23)S1(=O)=O` (centres undefined) the figure was 118 °C; with `CCOC(=O)c1nn(Cc2cn(C(c3ccccc3)(c3ccccc3)c3ccccc3)cn2)c2cc(OC)c(OC)cc12`, 184 to 186 °C.
For the molecule `O=C(O)c1cc(C(F)(F)F)ccc1Cl`, the melting point was in the range of 93 to 94 °C.
On to `CCCCCCCCCCCCCCCCCCOc1cc(NC(=O)OCc2ccccc2)cc(OCCCOc2ccccc2)c1`, for which the melting point is 68 to 69 °C.
Next, `COc1cccnc1CO`: 72.5 to 73.5 °C.
As to `NC(=O)c1csc(Cl)c1`, the melting point fell in the range of 138 to 139 °C.
With `COc1cccc(-c2cn(-c3ccccc3)c3ncnc(N)c23)c1` the figure was 159 to 160 °C.
Next, `COc1cc(NC(=O)OC(C)(C)C)cc2c1nc(C(F)F)n2-c1nc(N2CCOCC2)nc(N2CCN(S(=O)(=O)CCN(C)C)CC2)n1`: 200 to 202 °C; `CCCCCS(=O)(=O)NC(=O)/C=C/c1cc(OCCOC)nn1Cc1ccc(C(F)(F)F)cc1Cl`: 130 to 132 °C; `COc1cc(OC)nc(NC(=O)NS(=O)(=O)N=CN(C)CSC)n1`: 167 to 168 °C.
In the case of `CO/C=C(/C(=O)OC)c1ccccc1Oc1cc(O)ncn1`, the melting point is 168 to 170 °C.
Next, `CCc1nc2c(C)cc(C)nc2n1Cc1ccc(-c2ccccc2-c2c(N(C)C)c(=O)c2=O)cc1`: 140 to 142 °C; `COC(=O)c1cc(C(=O)CBr)cs1`: 112 to 114 °C.
Next, `c1ccc(N2CCN(c3nsc4ccccc34)CC2)cc1`: 260 to 262 °C.
With `CC(=O)Nc1nc2c(s1)-c1c(cnn1-c1ccc(C(=O)N3CCC(NC(=O)Cc4ccccc4)CC3)cc1)CC2` the figure was 271 to 272 °C; with `CN1CCN(C2=Nc3ccccc3Nc3cscc32)CC1`, 200 to 201 °C; with `Cc1oc(-c2ccccc2)nc1COc1ccc(COc2nn(Cc3ccccc3)cc2C=O)cc1`, 133 to 134 °C.
`CCOC(=O)c1c(-c2ccncc2)[nH]c(-c2ccncc2)c1C` registered a melting point of 206 to 208 °C.
Next, `Cc1c(Br)c2cnnc(OCc3ccccc3)c2n1Cc1ccccc1`: 122 to 123 °C; `Cc1c(Br)cc(C(C)(C)C)c(O)c1-c1nc2cc(OC(F)(F)F)ccc2[nH]1`: 235 to 236 °C.
With `O=[N+]([O-])c1ccc(-c2nc3ccc(F)cc3s2)cc1` the figure was 201 to 202 °C; with `O=S(=O)(C=Cc1ccc(F)cc1)Oc1ccccc1`, 108 °C.
With `CC(C)Cn1c(C(O)c2ccccc2)nc2c(N)nc3ccccc3c21` (centres undefined) the figure was 125 to 140 °C; with `CCCCC(CC(=O)O)c1cc(Cl)c(OC)cc1OC` (centres undefined), 91 to 92 °C.
The molecule `CC(C)(C)OC(=O)Nc1ccc(-c2ncn(-c3ccc(OC(F)(F)C(F)(F)F)cc3)n2)cc1` returned a melting point of 205 to 209 °C.
`CC(C)(CO[N+](=O)[O-])C(=O)N1C(C(=O)O)CSC1c1ccccc1` (centres undefined) registered a melting point of 35 to 38 °C.
As to `O=C1CC(c2cccc(-n3ccnc3)c2)=Nc2cc(N3CCC(OCCO)CC3)c(-c3ccc(F)cc3)cc2N1`, the melting point lay in the range of 225 to 227 °C.
With `CCCCOC(=O)N(C)c1cccc(-c2ccnc3c(C#N)cnn23)c1` the figure was 96 to 97 °C.
Next, `S=C1Nc2ccccc2Sc2nccn21`: 156 to 159 °C.
With `COC(=O)c1ccc(SC)c(-c2cc(C)no2)c1C` the figure was 94 to 95 °C; with `CN1CC(CCCl)Oc2cc3ccccc3nc2C1=S` (centres undefined), 114 to 116 °C.
On to `COc1cc(F)nc(N)n1`, for which the melting point lay within 171 to 173 °C.
With `CCCCC(=O)Nc1ccc([N+](=O)[O-])cc1` the figure was 107 to 116 °C; with `Cc1cc(COc2c(Cl)cc(CSc3ccc4ccccc4c3)cc2Cl)oc(=O)c1`, 125 °C.
On to `CCN(CC)c1ccc(/C=C/c2cc(/C=C/c3ccc4cc[nH]c4c3)[nH]n2)cc1`, for which the melting point fell in the range of 201 to 204 °C.
Next, `O=C1c2ccc(OCCO)cc2C(=O)c2cc3ccccc3cc21`: 209 °C; `COc1ccc(C=Cc2ccc(C#N)cc2)cc1`: 146 to 148 °C; `CCC(CC)COc1c(C)nc(N)nc1N`: 142 to 143 °C.
Next, `CC(C)n1c(=O)c(C(=O)NCC2CCN(CC3(O)CCOCC3)CC2)cc2c(Cl)cccc21`: 227 °C; `COc1cc(N)c([N+](=O)[O-])cc1C(F)(F)F`: 56 °C.
With `CCc1ccsc1C(=O)O` the figure was 106 to 109 °C; with `CSC(=Nc1ccccc1C(=O)NC(C)C)NC(=O)c1ccccc1`, 117 to 120 °C; with `COC(=O)[C@H](CO)NC(=O)c1ncn2c1CN(C)C(=O)c1ccccc1-2`, 180 to 181 °C.
Molecule `Cc1cc(OCCN)ccc1NC(=O)c1ccc(N2CCNCC2)cc1` showed a melting point of over 250 °C.
